Reference: US8809372B2, “Pyridine derivatives” (Endo Pharmaceuticals, Inc., priority 2011, dated 2014)

Columns and labels:
[1] = biological target: T1, rat CYP17 (rat testicular microsomes) (Rattus norvegicus, UniProt P11715); assay: CYP17 inhibition assay in rat testicular microsomes; type: biochemical
T1 construct: Rat testis tissue was collected and disrupted with 30 strokes of a glass homogenizer; from tissue; host or cells: rat testis (microsomes)
T1 sequence (P11715 1-507): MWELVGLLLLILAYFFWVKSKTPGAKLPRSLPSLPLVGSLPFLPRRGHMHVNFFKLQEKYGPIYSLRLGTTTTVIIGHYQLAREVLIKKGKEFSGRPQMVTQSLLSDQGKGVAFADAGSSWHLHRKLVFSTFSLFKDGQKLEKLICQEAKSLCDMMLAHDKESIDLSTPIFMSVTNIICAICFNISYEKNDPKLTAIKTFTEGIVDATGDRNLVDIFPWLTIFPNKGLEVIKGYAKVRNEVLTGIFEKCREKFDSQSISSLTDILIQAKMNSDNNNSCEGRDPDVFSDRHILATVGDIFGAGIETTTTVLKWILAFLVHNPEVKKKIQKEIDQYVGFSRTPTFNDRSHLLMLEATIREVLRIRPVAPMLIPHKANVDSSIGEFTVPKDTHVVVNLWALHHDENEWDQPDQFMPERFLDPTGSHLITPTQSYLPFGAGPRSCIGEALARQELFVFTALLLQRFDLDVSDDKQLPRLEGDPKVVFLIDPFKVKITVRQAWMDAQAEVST
Protocol: CYP17 Inhibition Assay in Rat Testicular Microsomes (Rat CYP17) or Yeast Microsome Overexpressing Human CYP17
1. NADPH (Sigma): A working stock was prepared by adding 25 μL of 6.5 mM NADPH in each tube. The final concentration of NADPH used in the assay was 325 μM.
2. Potassium Phosphate Buffer: One molar (1M) solutions of K2HPO4 and KH2PO4 were prepared. Eight mL of the 1 M KH2PO4 and 1.98 mL of the 1 M K2HPO4 were combined and the pH was adjusted to 7.4.
3. ^3H3-17α-hydroxypregnenolone (American Radiolabeled Chemicals, Inc., stock 1 μCi/μL): A 1:1 dilution of ^3H3-17α-hydroxypregnenolone in ethanol was prepared by combining 100 μL ^3H3-17α-hydroxypregnenolone+100 μL ethanol for one complete 96 well plate. For the reaction, 2 μL of the diluted ^3H3-17α-hydroxypregnenolone was added in each tube, i.e., 1 μCi/reaction. 4. Microsome Isolation Buffer: The microsome isolation buffer was prepared by combining 250 mM Sucrose, 5 mM EDTA, 10 mM Tris HCl, 4 mM DTT, and adjusting to pH 7.4. 5. TEG Buffer: The TEG buffer was prepared by combining 50 mM Tris HCl, 1 mM EDTA, and 20% Glycerol. 6. Rat Testicular Microsomes: Rat testis tissue was collected and disrupted with 30 strokes of a glass homogenizer on ice with 250 μL of microsome isolation buffer, followed by centrifugation at 10,000 g for 10 minutes at 4° C. The supernatant was collected and centrifuged at 100,000 g for 45 minutes at 4° C. The pellet was dissolved in TEG Buffer and the protein was quantified. The homogenized microsome samples were then frozen at −80° C. • 7. Yeast Microsomes which overexpress the human CYP17 enzyme were obtained from Premas Biotech, India.
Potassium phosphate buffer (470 μL) was prepared as described above and was added to each well of a deep well plate. The test compound was diluted using a TECAN liquid handler and 5 μL of diluted compound was transferred to each well (96 deep well/1 mL). A solution (25 μL) of 6.5 mM NADPH was added (final concentration of 325 μM in the assay). ^3H3-17α-hydroxypregnenolone (2 μL of the working stock) was added to each tube. The plates were then pre-incubated for 15 minutes at 37° C. Following the pre-incubation, either 5 μL rat testicular microsomes (150-160 μg) or 5 μL of yeast microsomes expressing human CYP17 (1.7 pmol), was added. Incubation was at 37° C. for 60 minutes in the presence of oxygen. The plates were then placed in ice and chloroform (500 μL) was added, mixed well and incubated at 4° C. for 20 minutes. The plates were then centrifuged at 1000 rpm for 15 minutes at 4° C.
A portion (300 μL) of the aqueous solution was collected and mixed with a 5% aqueous suspension of activated charcoal (300 μL). The plates were then incubated at 4° C. for 30 minutes, after which the plates were centrifuged at 1000 rpm for 15 minutes at 4° C. From this, 125 μL of the aqueous solution was collected and plated into a 96 well plate. Microscint™ 40 [125 μL, Perkin-Elmer; containing a mixture of a polymer based on alkylphenolethoxylate (20-40%), diethanolamine-phosphoric acid ester ammonium salt (10-20%), sodium dioctyl sulphosuccinate (2.5-10%), triethyl phosphate (2.5-10%), 3,6-dimethyl-4-octyne-3,6-diol (≦2.5%), a polymer based on nonylphenolethoxylate (≦2.5%), diisopropyl naphthalene isomers (40-60%), 2,5-diphenyloxazole (≦2.5%), and 9,10-dimethylanthracene] was added and mixed well. After 30 minutes of incubation, the samples were analyzed with a MicroBeta® Trilux microplate liquid scintillation counter and luminometer (Perkin-Elmer).

[2] = biological target: T2, human CYP17 in H295R adrenocortical carcinoma cells (Homo sapiens, UniProt P05093); assay: Cell-based human CYP17 inhibition assay, H295R cells; details: 16 hours, read-out: CYP17 (human H295R adrenal cells)
T2 construct: H295R Adrenocortical carcinoma cells [NCI-H295A, ATCC Number CRL-2128, American Type Culture Collection; host or cells: H295R adrenocortical carcinoma cells
T2 sequence (P05093 1-508): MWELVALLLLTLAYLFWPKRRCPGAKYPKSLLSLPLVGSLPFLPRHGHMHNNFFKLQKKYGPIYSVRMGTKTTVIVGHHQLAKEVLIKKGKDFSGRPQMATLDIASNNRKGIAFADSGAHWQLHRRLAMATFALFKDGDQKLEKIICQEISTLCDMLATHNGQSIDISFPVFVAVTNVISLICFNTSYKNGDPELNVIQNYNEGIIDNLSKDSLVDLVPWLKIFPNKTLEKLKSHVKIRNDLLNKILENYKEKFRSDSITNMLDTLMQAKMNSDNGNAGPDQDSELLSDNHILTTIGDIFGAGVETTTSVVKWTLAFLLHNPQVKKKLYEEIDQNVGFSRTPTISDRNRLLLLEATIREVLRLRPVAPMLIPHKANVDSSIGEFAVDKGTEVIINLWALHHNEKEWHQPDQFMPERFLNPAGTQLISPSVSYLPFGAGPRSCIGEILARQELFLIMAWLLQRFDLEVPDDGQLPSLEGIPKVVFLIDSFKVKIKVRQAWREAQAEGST
Protocol: Cell-Based Human CYP17 Inhibition Assay
1. H295R Adrenocortical Carcinoma Cells and Growth Media: The media for the H295R Adrenocortical carcinoma cells [NCI-H295A, ATCC Number CRL-2128, American Type Culture Collection, Manassas, Va., US] (500 mL) was a DMEM:F12 Mix 1:1 with 5% (2 mL) BD Nu Serum; 1% (5 mL) ITS+Premix [BD Biosciences] and 1% Penstrep. 2. LNCap-CYP17 Cells and Growth Media: Full length hCYP17a1 gene (NCBI Reference Sequence: NM_000102.3) was cloned in pcDNA3.1(+) vector between HindIII and XhoI site. The pcDNA3.1(+) vector contains the Neomycin resistance gene and was used for selection of stable cell line. The hCYP17a1 containing pcDNA3.1(+) was transfected into LNCap cells to create the LNCap-CYP17 cell line. The media for the LNCaP-CYP17 cells was RPMI 1640, 10% FBS, 1% PenStrep, Geneticin 400 μg/mL.
The H295R cells or LNCaP-hCYP17 cells were subcultured and 30,000 cells per well were seeded in a poly-d lysine plate and incubated overnight at 37° C. The next day the media was removed and 200 μL of fresh media with ^3H3-17α-hydroxy-pregnenolone (1:1000) was added. 50 μL of serially diluted compounds from a 5× plate (5 times the final desired concentration) was added. The working concentration range for active, new compounds started from a high concentration of 10 μM with 3-fold serial dilutions generating up to 10 concentrations. The serial dilution in the 100× plate (in DMSO) and the stamping of a 5× plate (in media) from the 100× plate were carried out using a TECAN liquid handling device.
The plates were incubated overnight (16 hours) at 37° C. After 16 hours, the media was removed (approximately 220 μL) and an equal amount of chloroform was added, mixed and incubated for 30 minutes at 4 degrees. The plate was centrifuged at 4000 rpm for 15 minutes at 4° C., following which the top aqueous layer was carefully removed and added into a new deep well plate. An equal volume of activated 5% charcoal was added, mixed and incubated for 30 minutes at 4° C. The plate was then centrifuged at 4000 rpm for 15 minutes at 4° C. and the top layer carefully separated, avoiding any charcoal contamination, and placed in a white, clear bottom plate (plate cat #3610, Corning Life Sciences). An equal volume of Microscint™ 40 was added and mixed well. Following the incubation for 30 minutes, readings for the radiotracer were taken using a Microbeta® trilux.

Row | SMILES | IC50 [1] | IC50 [2]
1 | CC(O)(c1ccncc1)c1cc(-c2ccc(F)cc2)on1 (stereo not shown) [Example 50, 1-(5-(4-fluorophenyl)isoxazol-3-yl)-1-(pyridin-4-yl)ethanol] | < 50 nM | 50 to 200 nM
2 | CC(O)(c1ccncc1)c1nc(-c2ccc(F)cc2)no1 (single isomer, unassigned; (-)) [Example 35, (−)-1-(3-(4-fluorophenyl)-1,2,4-oxadiazol-5-yl)-1-(pyridin-4-yl)ethanol] | < 50 nM | 201 to 10000 nM
3 | Cn1cc(-c2ccc(C(C)(O)c3ccncc3)o2)ccc1=O (stereo not shown) [Example 58, 5-(5-(1-hydroxy-1-(pyridin-4-yl)ethyl)furan-2-yl)-1-methylpyridin-2(1H)-one] | 50 to 200 nM | 201 to 10000 nM
4 | CC(O)(c1ccncc1)c1ccc(-c2ccc(F)cc2)o1 (stereo not shown) [Example 37, 1-(5-(4-fluorophenyl)furan-2-yl)-1-(pyridin-4-yl)ethanol] | 50 to 200 nM | 50 to 200 nM
5 | CC(C)CC(O)(c1ccncc1)c1cnc(-c2ccc(F)cc2)s1 (stereo not shown) [Example 47, 1-(2-(4-fluorophenyl)thiazol-5-yl)-3-methyl-1-(pyridin-4-yl)butan-1-ol] | < 50 nM | < 50 nM
6 | CC(O)(c1ccncc1)c1cnc(-c2ccc(Cl)c(Cl)c2)s1 (stereo not shown) [Example 43, 1-(2-(3,4-dichlorophenyl)thiazol-5-yl)-1-(pyridin-4-yl)ethanol] | < 50 nM | < 50 nM
7 | CC(O)(c1ccncc1)c1cc(-c2ccc(F)cc2)sn1 (stereo not shown) [Example 63, 1-(5-(4-fluorophenyl)isothiazol-3-yl)-1-(pyridin-4-yl)ethanol] | < 50 nM | < 50 nM
8 | CC(O)(c1ccncc1)c1ccc(-c2ccc(F)cc2)cn1 (stereo not shown) [Example 5, 1-(5-(4-fluorophenyl)-pyridin-2-yl)-1-(pyridin-4-yl)ethanol] | < 50 nM | 201 to 10000 nM
9 | CCC(O)(c1ccncc1)c1cnc(-c2cn[nH]c2)s1 (single isomer, unassigned; (+)) [Example 20, (+)-1-[2-(1H-pyrazol-4-yl)-1,3-thiazol-5-yl]-1-pyridin-4-ylpropan-1-ol] | 201 to 10000 nM | –
10 | CCCC(=O)OC(C)(c1ccncc1)c1cnc(-c2ccc(F)cc2)s1 (stereo not shown) [Example 67, 1-(2-(4-fluorophenyl)thiazol-5-yl)-1-(pyridin-4-yl)ethyl butyrate] | < 50 nM | –
11 | CCC(=O)OC(C)(c1ccncc1)c1cnc(-c2ccc(F)cc2)s1 (stereo not shown) [Example 66, 1-(2-(4-fluorophenyl)thiazol-5-yl)-1-(pyridin-4-yl)ethyl propionate] | < 50 nM | –
12 | CC(O)(c1ccncc1)c1cnc(-c2ccc(F)nc2)s1 (stereo not shown) [Example 22, 1-(2-(6-Fluoropyridin-3-yl)thiazol-5-yl)-1-(pyridin-4-yl)ethanol] | 201 to 10000 nM | –

More lines, now with the values ahead:

Row | IC50 [1] | IC50 [2] | SMILES
13 | 50 to 200 nM | 50 to 200 nM | Cn1cc(-c2ccc(C(C)(O)c3ccncc3)s2)ccc1=O (single isomer, unassigned; (+)) [Example 16, (+)-5-(5-(1-hydroxy-1-(pyridin-4-yl)ethyl)thiophen-2-yl)-1-methylpyridin-2(1H)-one]
14 | < 50 nM | – | CC(=O)OC(C)(c1ccncc1)c1cnc(-c2ccc(F)cc2)s1 (stereo not shown) [Example 65, 1-(2-(4-Fluorophenyl)thiazol-5-yl)-1-(pyridin-4-yl)ethyl acetate]
15 | 50 to 200 nM | 201 to 10000 nM | CCCCC(=O)c1ccc(-c2ccc(C(C)(O)c3ccncc3)nc2)cn1 (stereo not shown) [Example 62, 1-(6′-(1-hydroxy-1-(pyridin-4-yl)ethyl)-[3,3′-bipyridin]-6-yl)pentan-1-one]
16 | < 50 nM | 50 to 200 nM | CC(O)(c1ccncc1)c1ccc(-c2ccc(C#N)nc2)cn1 (stereo not shown) [Example 12, 6′-(1-Hydroxy-1-(pyridin-4-yl)ethyl)-[3,3′-bipyridine]-6-carbonitrile]
17 | < 50 nM | 201 to 10000 nM | CC(O)(c1ccncc1)c1cnc(-c2ccc(F)cc2)cn1 (stereo not shown) [Example 11, 1-(5-(4-Fluorophenyl)pyrazin-2-yl)-1-(pyridin-4-yl)ethanol]
18 | < 50 nM | 201 to 10000 nM | CC(O)(c1ccncc1)c1noc(-c2ccc(F)cc2)n1 (stereo not shown) [Example 29, 1-(5-(4-Fluorophenyl)-1,2,4-oxadiazol-3-yl)-1-(pyridin-4-yl)ethanol]
